Test results as given in US7807623B2, “Use of pentagastrin to inhibit gastric acid secretion or as a diuretic” (The Regents of the University of California, priority 1999, dated 2010).
Where “and” joins values, the source holds several entries; their conditions need not be identical. Equal values may be shown once.

Legend:
[1] = test system: Pentagastrin-Induced Gastric Acid Secretion; test: Continuous pentagastrin infusion model: gastric acid output after single i.v. dose; type: in vivo, human; settings: for Acid Output, Treatment Period 0-6 h / Acid Output, Treatment Period 6-12 h / Acid Output, Treatment Period 12-18 h / Acid Output, Treatment Period 18-24 h: continuous PG 1 μg/kg/h, mean ± SD; for duration of action (time AO remained <10 mEq/h) / onset of response (time until AO decreased to <10 mEq/h and remained below for 1 h): mean±SD
Protocol: After 60 min of pentagastrin infusion, subjects received a single dose of i.v. pantoprazole (20, 40, 80, or 120 mg), i.v. famotidine (20 mg), or saline placebo. […] The study protocol was approved by the UCLA Institutional Review Board and conducted according to the provisions of the Declaration of Helsinki and its amendments. Written informed consent was obtained from each participant before enrollment, and the identity of each patient was kept confidential. Each subject underwent a prestudy screening that included a physical examination, electrocardiogram (ECG), laboratory blood and urine analysis, and a pregnancy test for women. The laboratory test included a complete blood count, blood chemistry tests, a test for human immunodeficiency virus, a screening for hepatitis B and C, and a urine drug screen. Subjects were excluded from the study if abnormalities in these parameters were detected. Maximum AO (MAO) were also determined during the screening period. MAO was estimated by the subcutaneous injection of PG (6 μg/kg), after which four 15-min samples were collected and analyzed (Table 1). […] Subjects who completed the screening examination and were eligible for the study were assigned to one of six treatment groups to receive i.v. doses of pantoprazole (20, 40, 80, or 120 mg), i.v. famotidine (20 mg), or placebo (normal saline). […] To stimulate MAO, subjects received an infusion of PG for 25 h (Peptavalon, Wyeth-Ayerst; 1.0 μg/kg/h) begun 1 h before the start of the study drug infusion. Gastric aspirates were collected by means of nasogastric (NG) tube in 15-min fractions from 1 h before study drug treatment through the end of treatment h 2 and in 30 min fractions from h 3 through the end of h 24. The variables measured were onset of response (time until AO decreased to <10 mEq/h and remained below this level for 1 h), duration of response (time from onset until time when AO levels rose to >10 mEq/h and remained so for 1 h), and cumulative AO 15 over 24 h. […] On the evening before study day 1, participants were admitted to the UCLA Clinical Research Center. […] PG administration and MAO analyses were performed. […] Because no fluid or food p.o. was permitted during the study period, subjects received maintenance i.v. fluid to prevent dehydration. Vital signs and electrolytes were monitored during this time. […] (1973) Dig. […] Because this was an exploratory study, statistical analysis consisted of presenting means and standard deviations.

[2] = Adverse event monitoring in the pentagastrin infusion study; type: in vivo, human; settings: for subjects who withdrew because of adverse events: healthy subjects under continuous PG infusion
Description: Adverse events were monitored continuously in the Clinical Research Center. Treatment-emergent adverse events were defined as adverse events not present at baseline or events present at baseline that worsened during treatment.

CCKB/gastrin receptor [3] = molecular target: T1, CCKB/gastrin receptor (Rattus norvegicus, UniProt P30553); test: Meal gavage: renal hemodynamics, sodium excretion and urine volume; type: in vivo
T1 construct: act specifically at CCKB/gastrin receptors on renal tubular cells; from tissue; host or cells: kidney of living male Wistar-Kyoto rats (in vivo)
T1 sequence (P30553 1-452): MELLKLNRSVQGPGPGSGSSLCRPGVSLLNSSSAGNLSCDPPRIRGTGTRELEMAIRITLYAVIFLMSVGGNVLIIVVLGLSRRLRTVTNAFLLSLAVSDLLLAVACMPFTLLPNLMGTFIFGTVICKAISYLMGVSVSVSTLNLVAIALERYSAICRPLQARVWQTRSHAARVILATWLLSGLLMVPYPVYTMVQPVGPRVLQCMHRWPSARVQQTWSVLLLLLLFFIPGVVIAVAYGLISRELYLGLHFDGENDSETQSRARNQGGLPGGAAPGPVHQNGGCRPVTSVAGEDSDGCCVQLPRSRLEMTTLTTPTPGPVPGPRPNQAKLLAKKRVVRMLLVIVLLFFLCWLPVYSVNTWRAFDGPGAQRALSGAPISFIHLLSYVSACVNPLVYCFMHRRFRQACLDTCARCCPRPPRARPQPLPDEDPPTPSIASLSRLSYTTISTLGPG
Protocol: (§1) Male Wistar-Kyoto rats (300 grams, 10-12 weeks old) (Harlan Sprague Dawley, Indianapolis, Ind.) were maintained on a regular Purina rat chow diet. Catheters were placed into the external jugular and femoral veins and left carotid artery and systemic arterial pressure was monitored. The right suprarenal artery was cannulated with a PE-10 catheter heat stretched to 180 mm and a flow catheter was secured around the right renal artery (Transonic Systems, Ithaca, N.Y.). GFR was determined after an intravenous infusion of normal saline containing [^14C]-inulin (0.01 mCi/10 ml (New England Nuclear, Boston, Mass.) at a rate of 5 ml/100 g body wt. for 30 minutes followed by an infusion of 1.8 ml/100 g body wt/hr). After an equilibration period of 120 minutes, 20 minute collections were begun. Meal gavage studies were performed with 2.5 ml/hr of liquefied rat chow administered via gastric tube. Gastrin 17-1 (Peninsula Laboratories, CA) was diluted in normal saline and infused (10 pmoles/kg/hr) via the right renal artery catheter. Following a basal period, rats received either L-365,260 (80 pmoles/kg, 5 min bolus) or vehicle alone and 20 minute collection periods were begun for determination of sodium and water excretion.

Na+-K+-ATPase = Na+-K+-ATPase activity in isolated renal tubules after meal; type: biochemical, rat; settings: direct intrarenal infusion 80 pmoles/kg prior to the meal
Protocol: Renal tubules (cortical and medullary thick ascending limb of Henle) were isolated (Slobodyansky et al. (1995) Am. J. Physiol. 268: F279-F284) and immediately homogenized (in a Polytron) in 4° C. reaction buffer [4 mM MgCl2, 100 mM tris(hydroxymethyl)aminomethane HCl, pH7.2]. The dephosphorylation of tris(hydroxymethyl)aminomethane-p-nitrophenyl-phosphate was used as the index of Na^+-K^+-ATPase activity (Eisner et al. (1997) Am. J. Physiol. 273: R317-R323).

CCKB/gastrin receptor [4] = molecular target: T1, CCKB/gastrin receptor; test: Intrarenal gastrin infusion: renal hemodynamics, sodium excretion and urine volume; type: in vivo; settings: L-365,260 80 pmoles/kg bolus after gastrin infusion
Protocol: as §1

[5] = cited from earlier work
[6] = 80 pmoles/kg bolus, more than 5-fold with meal alone
[7] = L-365,260 80 pmoles/kg 5 min bolus before meal gavage
[8] = single i.v. doses 80 and 120 mg

## NC(N)=Nc1nc(CSCCC(N)=NS(N)(=O)=O)cs1 [Famotidine, famotidine]
[1]; single i.v. dose 20 mg
  Peak inhibition of acid output: 94%
  hourly AO averaged over the 24-h period: 18.2 mEq/h
  loss of acid-suppressing effectiveness: lost effectiveness after 6 h
  Acid Output, Treatment Period 0-6 h: 4.4 ± 2.5 mEq/h
  Acid Output, Treatment Period 6-12 h: 17.7 ± 5.1 mEq/h
  Acid Output, Treatment Period 12-18 h: 25.8 ± 9.3 mEq/h
  Acid Output, Treatment Period 18-24 h: 25.0 ± 10.4 mEq/h
  duration of action (time AO remained <10 mEq/h): 6.5 ± 2.1 h
  onset of response (time until AO decreased to <10 mEq/h and remained below for 1 h): 0.5 ± 0.2 h
[2]
  subjects who withdrew because of adverse events: No subjects
[2]; i.v. 20 mg group under continuous PG infusion
  adverse events reported: Three subjects from the famotidine group complained of abdominal pain and dyspepsia and were noted to have small amounts of blood in their NG aspirate

## Cc1cccc(NC(=O)N[C@@H]2N=C(c3ccccc3)c3ccccc3N(C)C2=O)c1 [L-365,260]
CCKB/gastrin receptor [3]; 80 pmoles/kg bolus
  inhibition of meal-stimulated increase in sodium and water excretion: up to 80%
CCKB/gastrin receptor [3]; 80 pmoles/kg bolus, compared to vehicle alone
  effect on meal-stimulated increase in urine flow rate: nearly completely inhibited
CCKB/gastrin receptor [3]; [6]
  meal-stimulated increase in fractional excretion of sodium (FeNa) in presence of antagonist: 2 fold
  meal-stimulated increase in urinary sodium (UNaV) in presence of antagonist: 2 fold
CCKB/gastrin receptor [3]; [7]
  effect on meal-induced increase in glomerular filtration rate (GFR): inhibited
  effect on meal-induced increase in renal blood flow (RBF): inhibited
CCKB/gastrin receptor [3]; meal gavage study period, 80 pmoles/kg bolus
  effect on Mean Arterial Pressure (MAP): No effect
Na+-K+-ATPase
  effect on meal induced inhibition of Na+/K+-ATPase activity: complete reversal
CCKB/gastrin receptor [4]
  effect on gastrin-stimulated FeNa: returned to near baseline values
  effect on gastrin-stimulated changes in urine flow rate: completely antagonized
  effect on gastrin-stimulated elevation in urinary excretion of sodium: returned to near baseline values

## COc1ccnc(C[S+]([O-])c2nc3ccc(OC(F)F)cc3[nH]2)c1OC (stereo not shown) [Pantoprazole, pantoprazole]
[1]; 80 and 120 mg doses, all subjects, after 1 h and for the full 24-h period
  AO suppressed to: < 10 mEq/h
[1]; all i.v. doses (20, 40, 80, 120 mg)
  AO suppressed to: < 10 mEq/h
[1]; i.v., in general
  time after administration at which acid-suppressing activity was observed: 15 to 20 min
[1]; single i.v. dose 20 mg
  Peak inhibition of acid output: 83%
  hourly AO averaged over the 24-h period: 11.9 mEq/h
  Acid Output, Treatment Period 0-6 h: 11.7 ± 10.5 mEq/h
  Acid Output, Treatment Period 6-12 h: 13.6 ± 13.3 mEq/h
  Acid Output, Treatment Period 12-18 h: 15.1 ± 13.7 mEq/h
  Acid Output, Treatment Period 18-24 h: 14.2 ± 8.6 mEq/h
  duration of action (time AO remained <10 mEq/h): 8.4 ± 8.0 h
[1]; single i.v. dose 40 mg
  Peak inhibition of acid output: 90%
  hourly AO averaged over the 24-h period: 7.6 mEq/h
  Acid Output, Treatment Period 0-6 h: 8.1 ± 5.4 mEq/h
  Acid Output, Treatment Period 6-12 h: 4.8 ± 4.0 mEq/h
  Acid Output, Treatment Period 12-18 h: 7.3 ± 4.1 mEq/h
  Acid Output, Treatment Period 18-24 h: 10.1 ± 3.7 mEq/h
[1]; single i.v. dose 80 mg
  Peak inhibition of acid output: 99%
  hourly AO averaged over the 24-h period: 3.3 mEq/h
  Acid Output, Treatment Period 0-6 h: 2.4 ± 1.5 mEq/h
  Acid Output, Treatment Period 6-12 h: 1.2 ± 0.6 mEq/h
  Acid Output, Treatment Period 12-18 h: 3.7 ± 1.9 mEq/h
  Acid Output, Treatment Period 18-24 h: 6.1 ± 3.2 mEq/h
  duration of action (time AO remained <10 mEq/h): 21.2 ± 1.9 h
  onset of response (time until AO decreased to <10 mEq/h and remained below for 1 h): 0.8 ± 0.3 h
[1]; single i.v. dose 120 mg
  Peak inhibition of acid output: 100%
  hourly AO averaged over the 24-h period: 2.4 mEq/h
  Acid Output, Treatment Period 0-6 h: 1.3 ± 0.8 mEq/h
  Acid Output, Treatment Period 6-12 h: 0.7 ± 0.2 mEq/h
  Acid Output, Treatment Period 12-18 h: 3.7 ± 0.7 mEq/h
  Acid Output, Treatment Period 18-24 h: 5.2 ± 0.4 mEq/h
  onset of response (time until AO decreased to <10 mEq/h and remained below for 1 h): 0.4 ± 0.2 h
[1]; [8]
  duration of acid output suppression: > 20 h
  onset of action: < 1 h
[1]; single i.v. doses 80 and 120 mg, all subjects
  suppression of acid output: 99-100%
[1]; single i.v. doses 80 and 120 mg, all subjects, listed as pantoprazole
  suppression of acid output: > 90%
[1]; single i.v. doses 80 and 120 mg, listed as pantoprazole
  duration of acid output suppression: ~24 h and < 21 h
[2]
  subjects who withdrew because of adverse events: Three

## CSCC[C@H](NC(=O)[C@H](Cc1c[nH]c2ccccc12)NC(=O)CCNC(=O)OC(C)(C)C)C(=O)N[C@@H](CC(=O)O)C(=O)N[C@@H](Cc1ccccc1)C(N)=O [Pentagastrin, N-t-butyloxycarbonyl-Beta-alanyl-L-tryptophyl-L-methionyl-L-aspartyl-L-phenyl-alanyl amide]
[5]
  solubility in dimethylformamide and dimethylsulfoxide: soluble
  solubility in water, ethanol, ether, benzene, chloroform, ethyl acetate: almost insoluble
